Reference: US20050260126A1 (priority 2002, published 2005)
Structures can show the parent of a compound that is named as a salt. Where two headings read alike, the source gives them in different places.

Legend:
ScN2a cells = conditions: for Concentration of inhibiting cell proliferation TC: mouse
[1] = system: abnormal prion proteins (kuru plaques) in brain sections of GSS patients; parameters: species or system human; conditions: GSS patient brain sections, 10-200 μM in 50% ethanol, 30 minutes
[2] = Slc:ICR, mouse, not told, iv
in vivo = conditions: male, Crj:CD1, mouse, iv
[3] = system: abnormal prion proteins in ScN2a cells with persistent infection of scrapie; assay: cells; format: cell-based, mouse; conditions: for IC50: Mus musculus, ScN2a, 96 h, read-out: Inhibitory effects on producing abnormal prion protein IC50; for Inhibitory effects on producing abnormal prion proteins (in words): ScN2a cells
[4] = system: abnormal prion proteins in ScN2a cells with persistent infection of scrapie; conditions: read-out: Inhibitory effects on producing abnormal prion protein IC50 (quinacrine, literature), Doh-ura et al. 2000; cited from earlier work

SMILES	Concentration of inhibiting cell proliferation TC (ScN2a cells)	Detection of spotted depositions of abnormal prion proteins (fluorescent signals) [1]	Permeability into the brain: content in Brain [2]	Permeability into the brain: content in Plasma [2]	MTD (in vivo)	IC50 [3]	TC and safety concentration margin (in words) (ScN2a cells)	Inhibitory effects on producing abnormal prion proteins (in words) [3]	IC50 [4]
CCN(CC)c1ccc(/C=C/c2nc3ccccc3s2)cc1 [BF-124, 4-[2-(2-benzothiazolyl)-ethenyl]-N,N-diethyl-benzenamine hydrochloride]	100 µM	spotted fluorescent signals were observed	2.4 % ID/g or ml	1.6 % ID/g or ml	≥ 10 mg/kg	100 nM	–	–	–
CN(C)c1ncc(/C=C/c2nc3ccc(OCCF)cc3o2)s1 [BF-227, 2-[2-(2-dimethylamino-thiazol-5-yl)ethenyl]-6-(2-fluoroethoxy) benzoxazole]	10 µM	spotted fluorescent signals were observed	7.9 % ID/g or ml	2.1 % ID/g or ml	≥ 10 mg/kg	4 nM	–	–	–
CCN(CC)c1ccc(/C=C/c2nc3ccccc3o2)cc1 [BF-125, 4-[2-(2-benzoxazolyl)ethenyl]-N,N-diethyl benzeneamine hydrochloride]	50 µM	spotted fluorescent signals were observed	3.0 % ID/g or ml	2.5 % ID/g or ml	≥ 10 mg/kg	100 nM	–	–	–
C(=C\c1nc2ccccc2o1)/c1ccccc1 [Compound N-407, 2-(2-phenylethenyl)-benzoxazole]	100 µM	spotted fluorescent signals were observed	16.0 % ID/g or ml	1.3 % ID/g or ml	≥ 10 mg/kg	1 nM	higher TCs, therefore higher safety concentration margins	highly inhibitory effects	–
CCN(CC)CCCC(C)Nc1c2ccc(Cl)cc2nc2ccc(OC)cc12 (stereo not drawn) [quinacrine]	–	–	–	–	–	–	–	–	400 nM
Cc1ccc2sc(/C=C/c3ccc(Cl)cc3)nc2c1 [Compound N-441, 2-[2-(4-chlorophenyl)ethenyl]-5-methyl-benzothiazole]	100 µM	spotted fluorescent signals were observed	5.6 % ID/g or ml	2.7 % ID/g or ml	≥ 10 mg/kg	1 nM	higher TCs, therefore higher safety concentration margins	highly inhibitory effects	–
CNc1ccc(/C=C/c2nc3ccc(OCCF)cc3o2)cc1 [BF-168, 6-(2-fluoroethoxy)-2-[2-(4-methylamino-phenyl)ethenyl]-benzoxazole]	10 µM	spotted fluorescent signals were observed	–	–	≥ 10 mg/kg	1 nM	–	highly inhibitory effects	–
C(=C\c1nc2ccccc2s1)/c1ccccc1 [Compound N-438, 2-(2-phenylethenyl)-benzothiazole]	100 µM	spotted fluorescent signals were observed	11 % ID/g or ml	1.9 % ID/g or ml	≥ 10 mg/kg	10 nM	–	–	–
CN(C)c1ccc(/C=C/c2ccc3ccccc3n2)cc1 [BF-179, 2-[2-(4-dimethylamino-phenyl)ethenyl]-quinoline]	5 µM	spotted fluorescent signals were observed	4.3 % ID/g or ml	1.7 % ID/g or ml	≥ 10 mg/kg	5 nM	–	–	–
CCN(CC)c1ccc(/C=C/c2nc3cc(F)ccc3[nH]2)cc1 [BF-166, 2-(4-diethylamino)-styryl-5-fluoro-benzimidazole]	10 µM	spotted fluorescent signals were observed	–	–	< 10 mg/kg	10 nM	–	–	–
CCN(CC)c1ccc(/C=C/c2nc3ccccc3[nH]2)cc1 [BF-126, 4-[2-(2-benzimidazole)-ethenyl]-N,N-diethyl-benzenamine p-toluenesulfonate]	25 µM	spotted fluorescent signals were observed	7.2 % ID/g or ml	2.7 % ID/g or ml	≥ 10 mg/kg	100 nM	–	–	–
CNc1ccc(/C=C/c2nc3ccccc3o2)cc1 [BF-169, 2-(4-methylamino)-styrylbenzoxazole]	100 µM	spotted fluorescent signals were observed	–	–	≥ 10 mg/kg	10 nM	–	–	–
CNc1ccc(/C=C/c2nc3cc(F)ccc3o2)cc1 [BF-145, 2-(4-methylamino)-stryl-5-fluoro-benzoxazole]	50 µM	spotted fluorescent signals were observed	4.4 % ID/g or ml	1.2 % ID/g or ml	≥ 10 mg/kg	5 nM	–	–	–
CNc1ccc(/C=C/c2nc3ccc(O)cc3o2)cc1 [BF-165, 2-(4-methylamino)-styl-6-hydroxy-benzoazole]	100 µM	spotted fluorescent signals were observed	7.2 % ID/g or ml	1.9 % ID/g or ml	≥ 10 mg/kg	10 nM	–	–	–
